# Key:
# [1] = tested on: polymorphonuclear leukocyte infiltration (myeloperoxidase activity); test: Myeloperoxidase (MPO) activity assay in hippocampus and neocortex after MCA-O and reperfusion; format: in vivo, mouse; details: 0.4 μg over 48 h cerebroventricular perfusion; 1 h MCA-O, 48 h reperfusion
# Method: Middle Cerebral Artery Occlusion (MCA-O) and reperfusion. Experimental protocols were reviewed and approved by the Institutional Animal Care and Use Committee of Louisiana State University Health Sciences Center, New Orleans. Mice (20-25 g body wt) were induced with 2% isoflurane in a mixture of 70% nitrous oxide and 30% oxygen. Anesthesia was maintained with 1% isoflurane. Temperature was maintained at 36.5-37.5° C. using a Harvard homeothermic blanket. P 10 polyethylene catheters were placed in the femoral artery and vein, and the blood pressure was monitored. Arterial blood was analyzed for PO2, PCO2, and pH after 1 h of ischemia and 30 min after the onset of reperfusion. The common carotid and external carotid arteries were temporarily ligated with a retracting suture, and the external carotid artery was dissected just proximal to its bifurcation. The occluding filament was introduced from the external carotid artery and advanced to the internal carotid artery. The AVM micro clip was removed. The filament was advanced so that the blunted tip lay in the anterior cerebral artery and the side of the filament occluded the origin of the middle cerebral artery (MCA). The stump of the external carotid artery was ligated, and tension on the retracting suture to the common carotid artery was gently released, restoring blood flow to the carotid system.
# Occlusion of the middle cerebral artery (MCA-O) was maintained for 1 h; reperfusion was then established by delicate retrieval of the occluding suture from the arterial lumen, restoring blood flow to the region of the MCA. The mice were then killed, and the hippocampus and brain cortex rapidly dissected and frozen. Samples were kept at −80° C. until analysis. In some experiments, aspirin (7.5 mg/kg) was administered by gavage 15 min before MCA-O.
# Polymorphonuclear leukocyte infiltration measurement by the myeloperoxidase (MPO) assay. Inhibition of leukocyte infiltration by 10,17S-docosatriene (NPD1) or docosahexaenoic acid (DHA) was measured in mouse hippocampus and neocortex after 1 h of middle cerebral artery occlusion (MCA-O) and 48 h of reperfusion. Lipids were delivered for each experiment by perfusion (250 nl/h) through Alzet minipumps implanted into the third ventricle. Hippocampus and neocortex from the ipsilateral (MCA-O-reperfusion) and contralateral sides were rapidly dissected. Brain samples were assayed for myeloperoxidase activity as described in Huang, J., Choudhri, T. F., Winfree, C. J., McTaggart, R. A., Kiss, S., Mocco, J., Kim, L. J., Protopsaltis, T. S., Zhang, Y., Pinsky, D. J., and Connolly Jr., E. S. (2000) Stroke 31, 3047-3053. Briefly, brain tissues were homogenized in 10 mM phosphate buffer (pH 7.4), then frozen and thawed with liquid N2 followed by sonication. Samples were precipitated at 10,000×g for 10 min, then aliquots of supernatants were added to 10 mM phosphate buffer (pH 6.0) and a substrate solution containing o-dianisidine (Sigma; St. Louis, Mo.) and 0.025% hydrogen peroxide, and finally incubated at 37° C. for 45 min. Spectrophotometric detection was obtained at 460 nm.
# [2] = tested on: COX-2 expression; test: COX-2 mRNA abundance in ipsilateral hippocampus after MCA-O; format: in vivo, mouse; details: 1 h MCA-O, 2 h reperfusion, infused into third ventricle (NPD1 0.16 μg/ml)
# Method: COX-2 RNA abundance in hippocampus and HN cells. Abundance of human-specific COX-1 and COX-2 RNA message was assayed using RT-PCR as described in Bazan, N. G., and Lukiw, W. J. (2002) J. Biol. Chem. 277, 30359-30367.
# To determine COX-1 and COX-2 expression, mRNA abundance in the ipsilateral hippocampus was measured. […] A 3-fold increase of COX-2 was seen due to MCA-O reperfusion (FIG. 7C). The infusion of the precursor DHA as well as its product 10,17S-docosatriene (NPD1) inhibited COX-2 expression by 14% and 52%, respectively.
# [3] = tested on: ARPE-19 cells; test: ELISA detection of mono- and oligonucleosomes; format: cell-based, human; details: 50 nM
# Method: Assessment of apoptosis by mono- and oligonucleosome analysis: Cells were homogenized in a lysis buffer and 20-μl aliquots were applied on streptavidin-coated 96-well plates. Cells were incubated for 2 h with 80 μl incubation buffer containing the monoclonal antibodies directed against DNA and histones for detection of mono- and oligonucleosomes (Roche Diagnostics Corporation Cat. # 1774425). After the unreacted antibodies were washed away, the immune complexes of DNA-histone-antibodies remain bound to the streptavidin-coated plates, where detection was attained by horseradish-peroxidase reaction.
# DNA fragmentation was also detected by ELISA detection of mono- and oligonucleosomes in ARPE cells (Roche Diagnostics Corporation Cat. # 1774425). Cells were homogenized in a lysis buffer, and 20-μl aliquots were applied on streptavidin-coated 96-well plates. Cells were incubated for 2 h with 80 μl incubation buffer containing the monoclonal antibodies directed against DNA and histones for detection of mono- and oligonucleosomes. After the unreacted antibodies were washed away, the immune complexes of DNA-histone-antibodies remained bound to the streptavidin-coated plates, where detection is obtained through horseradish-peroxidase reaction. Quantitative analysis was performed in a Spectramax-250 (Molecular Devices) spectrophotometer.
# [4] = tested on: Bax; test: Western blot of Bax in ARPE-19 cells under TNFα/H2O2; format: cell-based, human; details: 50 nM; 800 μM H2O2 along with TNFα, 6 h
# Method: Analysis of pro- and anti-apoptotic proteins in ARPE-19 cells: Bcl-2 family proteins were analyzed by Western-blot analysis. In brief, 20-μg equivalents of each cell extract were subjected to electrophoresis on a 8-16% gel (Promega, Madison, Wis.) at 125 volts for 2 h. The proteins were transferred to nitrocellulose membrane at 30 volts for 1 h at 4° C. The membranes were subjected to treatment with primary antibodies of Bcl-2, Bcl-xL, Bax, and Bad for 1 h at room temperature, and probed 30 min with secondary antibody, goat anti-rabbit Ig:HRPO and HRP-conjugated anti-biotin antibody. (BD Sciences—Pharminogen, San Diego, Calif.) Then proteins were evaluated using an ECL kit. (Amersham Biosciences Corp., Piscataway, N.J.)
# Using the same TNFα/H2O2 concentrations, Bcl-2 proteins were assayed. Cells were grown for 72 h after plating, placed in serum-free medium for 1 h, then incubated with TNFα/H2O2 for 6 h. Protein expression and Western-blot analysis were performed as described in Example 13. Data in FIGS. 14A, 14B, 14C and 14D represent four independent experiments with triplicate samples in each case. Anti-apoptotic protein Bcl-xL was enhanced in ARPE-19 cells by TNFα/H2O2 (800 μM) (FIG. 14B, first bar), whereas Bcl-2 was not changed (FIG. 14A, first bar).
structure (smiles),measurement,setting,value
"CC/C=C\C[C@H](O)\C=C/C=C/C=C/[C@H](O)C/C=C\C/C=C\CCC(=O)O [NPD1, 10,17S-docosatriene]","inhibition of ipsilateral myeloperoxidase activity, cortex",[1],99%
same,"inhibition of ipsilateral myeloperoxidase activity, hippocampus",[1],80%
same,inhibition of COX-2 expression (mRNA),[2],52%
same,effect on TNFα/H2O2-induced accumulation of mono- and oligonucleosomes,[3],inhibited
same,decrease of the up regulation of Bax,[4],65%

# Source: patent publication US20050075398A1, “Neuroprotectin D1 protects against cellular apoptosis, stroke damage, alzheimer's disease and retinal diseases” (priority 2003, published 2005)
